The text below walks through data of PMC2995924 (International journal of high throughput screening, 2010).

For one experiment, the target named is T1, Ca2+-bound S100B (Rattus norvegicus, UniProt P04631).
T1 sequence (P04631 1-92): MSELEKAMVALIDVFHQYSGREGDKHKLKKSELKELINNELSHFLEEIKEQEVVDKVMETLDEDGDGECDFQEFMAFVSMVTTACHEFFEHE
In words: NMR 1H-15N HSQC chemical shift perturbation secondary screen. It counts as binding. Particulars: for NMR (confirmed to bind S100B via NMR HSQC experiments): 10-fold excess compound versus S100B (100 μM; 10 mM Ca2+).

The target of experiment [1] is T2, rat S100B (Rattus norvegicus, UniProt P04631).
T2 sequence (P04631 1-92): T1 sequence (P04631 1-92)
Briefly: Fluorescence polarization competition assay. It counts as binding. On the technique in general: Polarisation of emitted light reports the rotation of a fluorescent probe.

The target in experiment [2] is T2, rat S100B. In words: Fluorescence polarization binding assay of labeled peptides. To be noted: Ca2+-S100B.
The target in a further experiment is TAMRA-TRTK. Briefly: fluorescence polarisation.
A further experiment has as its target T3, S100B (Rattus norvegicus, UniProt P04631).
T3 sequence (P04631 1-92): T1 sequence (P04631 1-92)
Briefly: Binding monitored by change in the compound's intrinsic fluorescence.

Like-named read-outs stand apart in the source and are kept apart here.

Consider `O=C(O)c1ccccc1S` [thiosalicylic acid], for which, on Ca2+-bound S100B (1 mM compound added to 100 μM S100B, fast-exchange regime), the “Chemical shift perturbations of the HSQC NMR spectra” value is “significant chemical shift perturbations”. In addition, the “Inhibition of TAMRA-TRTK binding in the FPCA” value on rat S100B [1] (even at 2.5 mM compound) is given as “did not significantly inhibit”.
In the case of “FITC-p53_367–393: FITC-labeled peptide of human p53 residues 367–393”, the “Affinity (KD) of FITC-labeled peptide compared with unlabeled version” value with rat S100B [2] is recorded as “significantly higher affinity than the unlabeled version”.
As a reminder, the Kd is the concentration at which binding is half-saturated. Regarding `C[CH2][Hg][S]c1ccccc1C(=O)[O-].[Na+]` [SC0332, thimerosal], on Ca2+-bound S100B, the “NMR (confirmed to bind S100B via NMR HSQC experiments)” value is listed as “Yes”. In addition, on rat S100B [1] (calculated from FPCA IC50 with the equation of Nikolovska-Coleska et al), the Kd was 55.2 ± 5.1 µM.
Molecule “C68/84S mutant rat S100B (natural protein)” returned a Kd with TAMRA-TRTK of 2.42 µM.
Broadly, the IC50 is the concentration that gives 50% inhibition. Read a low IC50 as greater potency. On rat S100B [1], `CN(C)CCCN1c2ccccc2Sc2ccc(Cl)cc21` [SC0067, chlorpromazine] returned an IC50 of 2220 ± 1360 µM and a Kd of 697 ± 428 µM.
Consider `C[n+]1cc2c3c(ccc2c2ccc4cc5c(cc4c21)OCO5)OCO3` [SC0844, sanguinarine], for which the “NMR (confirmed to bind S100B via NMR HSQC experiments)” value on Ca2+-bound S100B was “Yes”. On rat S100B [1], the IC50 stood at 35.9 ± 16.4 µM and the Kd came to 10.7 ± 4.9 µM. The molecule also gave a Kd at S100B of 5.8 µM.
